Measured values from US6407103B2, “Indeno [1,2-c] pyrazol-4-ones and their uses” (Bristol-Myers Squibb Pharma Company, priority 1998, dated 2002).
Where a name gives a salt, the structure may show the parent alone.

| Compound | melting point |
| --- | --- |
| CC(C)(C)OC(=O)N1CCCC(C(=O)N2CCC(c3[nH]nc4c3C(=O)c3c(NC(=O)NN5CCOCC5)cccc3-4)CC2)C1 (stereo not drawn) [Example CCLXXXIX, 3-(1(1-(t-butoxycarbonyl)piperidin-3-ylcarbonyl)piperidin-4-yl)-5-(morpholinocarbamoylamino)indeno[1,2-c]pyrazol-4-one] | 196 °C |
| COc1ccc(-c2[nH]nc3c2C(=O)c2c(NC(=O)Cc4ccccc4OC)cccc2-3)cc1 [Example XIX, 3-(4-methoxyphenyl)-5-((2-methoxyphenyl)acetamido)indeno[1,2-c]pyrazol-4-one] | 255 °C |
| CC(C)(C)OC(=O)NCCCCC(=O)N1CCC(c2[nH]nc3c2C(=O)c2c(NC(=O)NN4CCOCC4)cccc2-3)CC1 (as salt: TFA) [Example CCLXXIX, 3-(1-(4-(t-butoxycarbonylamino)butylcarbonyl)piperidin-4-yl)-5-(morpholinocarbamoylamino)indeno[1,2-c]pyrazol-4-one] | 98 °C |
| COc1ccc(CC(=O)Nc2cccc3c2C(=O)c2c-3n[nH]c2-c2ccc(OC)cc2)cc1 [Example XII, 3-(4-methoxyphenyl)-5-((4-methoxyphenyl)acetamido)indeno[1,2-c]pyrazol-4-one] | 280 °C |
| CNc1ccc(NC(=O)c2ccc(-c3[nH]nc4c3C(=O)c3c(NC(=O)NN5CCOCC5)cccc3-4)s2)cc1 (as salt: TFA) [Example CXCVI, 3-(5-((4-methylaminophenyl)aminocarbonyl)-2-thienyl)-5-(morpholinocarbamoylamino)indeno[1,2-c]pyrazol-4-one] | 230 °C |
| COc1ccc(-c2[nH]nc3c2C(=O)c2c(NC(=O)C4CCCC4)cccc2-3)cc1 [Example VI, 3-(4-methoxyphenyl)-5-(cyclopentanecarboxamido)indeno[1,2-c]pyrazol-4-one] | 267 °C |
| CC1CN(c2ccc(-c3[nH]nc4c3C(=O)c3c(NC(=O)NN5CCOCC5)cccc3-4)cc2)CCN1 (stereo not drawn) (as salt: TFA) [Example CCXXXVII, 3-(4-(3-methylpiperazino)phenyl)-5-(morpholinocarbamoylamino)indeno[1,2-c]pyrazol-4-one] | 230 °C |
| O=C(Nc1cccc2c1C(=O)c1c-2n[nH]c1-c1ccc(N2CCC(N3CCCC3)CC2)cc1)NN1CCOCC1 (as salt: TFA) [Example CCLI, 3-(4-(4-pyrrolidinopiperidino)phenyl)-5-(morpholinocarbamoylamino)indeno[1,2-c]pyrazol-4-one] | 247 °C |
| CC(C)(C)OC(=O)NC1CCC(C(=O)N2CCC(c3[nH]nc4c3C(=O)c3c(NC(=O)NN5CCOCC5)cccc3-4)CC2)CC1 (stereo not drawn) (as salt: TFA) [Example CCLXXXV, 3-(1-(4-(t-butoxycarbonylamino)cyclohexylcarbonyl)piperidin-4-yl)-5-(morpholinocarbamoylamino)indeno[1,2-c]pyrazol-4-one] | 210 °C |
| COC(C)(C)[C@@H]1CCCN1NC(=O)Nc1cccc2c1C(=O)c1c-2n[nH]c1-c1ccc(N2CCNCC2)cc1 (as salt: TFA) [Example CCXXXII, 3-(4-piperazinophenyl)-5-((2(S)-(1-methoxy-1-methylethyl)pyrrolidino)carbamoylamino)indeno[1,2-c]pyrazol-4-one] | 218 °C |
| COc1ccccc1-c1[nH]nc2c1C(=O)c1c(NC(C)=O)cccc1-2 [Example XV, 3-(2-methoxyphenyl)-5-(acetamido)indeno[1,2-c]pyrazol-4-one] | 276 °C |
| O=C(Nc1cccc2c1C(=O)c1c-2n[nH]c1C1CCN(C(=O)Oc2ccccc2)CC1)NN1CCOCC1 (as salt: TFA) | 250 °C |
| COc1ccc(-c2[nH]nc3c2C(=O)c2c(NC(=O)CN4CCSCC4)cccc2-3)cc1 [Example XXXII, 3-(4-methoxyphenyl)-5-(thiomorpholinoacetamido)indeno[1,2-c]pyrazol-4-one] | 298 °C |
| COc1ccc(-c2[nH]nc3c2C(=O)c2c(NC(=S)NN4CCN(C)CC4)cccc2-3)cc1 [Example LXXXVI, 3-(4-methoxyphenyl)-5-((4-methylpiperazino)thionocarbamoylamino)indeno[1,2-c]pyrazol-4-one] | > 300 °C |
| COc1ccc(-c2[nH]nc3c2C(=O)c2c(NC(=O)Cc4ccc(NC(=O)CN)cc4)cccc2-3)cc1 [Example XXXVIII, 3-(4-methoxyphenyl)-5-((4-(aminomethylcarbonylamino)phenyl)acetamido) indeno[1,2-c]pyrazol-4-one] | 228 °C |
| O=CNc1cccc2c1C(=O)c1c-2n[nH]c1-c1ccncc1 [Example L, 3-(4-pyridyl)-5-(formamido)indeno [1,2-c]pyrazol-4-one] | > 300 °C |
| CCN(CC)c1ccc(NC(=O)c2ccc(-c3[nH]nc4c3C(=O)c3c(NC(=O)NN5CCOCC5)cccc3-4)s2)cc1 (as salt: TFA) [Example CXCVIII, 3-(5-(4-(diethylamino)phenylaminocarbonyl)-2-thienyl)-5-(morpholinocarbamoylamino)indeno[1,2-c]pyrazol-4-one] | 198 °C |
| COc1ccc(-c2[nH]nc3c2C(=O)c2c(NC(=O)Cc4ccc(NC(C)=O)cc4)cccc2-3)cc1 [Example XXXVI, 3-(4-methoxyphenyl)-5-((4-acetamidophenyl)acetamido)indeno[1,2-c]pyrazol-4-one] | 268 °C |
| CN(C)[C@@H]1CCN(C(=O)c2ccc(-c3[nH]nc4c3C(=O)c3c(NC(=O)NN5CCOCC5)cccc3-4)s2)C1 (as salt: TFA) [Example CLXXXI, 3-(5-(3(R)-(N,N-dimethylamino)pyrrolidinocarbonyl)-2-thienyl)-5-(morpholinocarbamoylamino)indeno[1,2-c]pyrazol-4-one] | 265 °C |
| NNC(=O)Nc1cccc2c1C(=O)c1c-2n[nH]c1-c1ccc(N2CCNCC2)cc1 (as salt: TFA) [Example CCXIII, 3-(4-piperazinophenyl)-5-(aminocarbamoylamino)indeno[1,2-c]pyrazol-4-one] | 257 °C |
| COc1ccc(-c2[nH]nc3c2C(=O)c2c(NC(=O)CN4CCNCC4)cccc2-3)cc1 [Example XXVI, 3-(4-methoxyphenyl)-5-(piperazinoacetamido)indeno[1,2-c]pyrazol-4-one] | 277 °C |
| COc1ccc(-c2[nH]nc3c2C(=O)c2c(NC(=O)CN4CCC(O)CC4)cccc2-3)cc1 [Example LXXIII, 3-(4-methoxyphenyl)-5-(4-hydroxypiperidinoacetamido)indeno[1,2-c]pyrazol-4-one] | > 300 °C |
| CCCc1[nH]nc2c1C(=O)c1c(NC(N)=O)cccc1-2 [Example XCII, 3-(n-propyl)-5-(carbamoylamino)indeno[1,2-c]pyrazol-4-one] | 187 °C |

More lines, now with the values ahead:

| melting point | Compound |
| --- | --- |
| 268 °C | COc1ccc(-c2[nH]nc3c2C(=O)c2c(NC(C)=O)cccc2-3)cc1 [Example I, 3-(4-methoxyphenyl)-5-(acetamido)indeno[1,2-c]pyrazol-4-one] |
| 258 °C | NC(=O)N1CCC(c2[nH]nc3c2C(=O)c2c(NC(=O)NN4CCOCC4)cccc2-3)CC1 (as salt: TFA) [Example CCLXVI, 3-(1-carbamoylpiperidin-4-yl)-5-(morpholinocarbamoylamino)indeno[1,2-c]pyrazol-4-one] |
| > 300 °C | O=C(Nc1cccc2c1C(=O)c1c-2n[nH]c1-c1ccc(C(=O)N2CCCC2)s1)NN1CCOCC1 (as salt: TFA) [Example CLXXIV, 3-(5-pyrrolidinocarbonyl-2-thienyl)-5-(morpholinocarbamoylamino)indeno[1,2-c]pyrazol-4-one] |
| 257 °C | NC(=O)Nc1cccc2c1C(=O)c1c-2n[nH]c1-c1ccc(N2CCNCC2)cc1 (as salt: TFA) [Example CCXII, 3-(4-piperazinophenyl)-5-(carbamoylamino)indeno[1,2-c]pyrazol-4-one] |
| > 280 °C | Cc1ccc(-c2[nH]nc3c2C(=O)c2c(NC(N)=O)cccc2-3)s1 [Example XCVIII, 3-(5-methyl-2-thienyl)-5-(carbamoylamino)indeno[1,2-c]pyrazol-4-one] |
| 278 °C | NC(=O)Nc1cccc2c1C(=O)c1c-2n[nH]c1-c1ccco1 [Example CIII, 3-(2-furanyl)-5-(carbamoylamino)indeno[1,2-c]pyrazol-4-one] |
| 218 °C | CC(C)c1[nH]nc2c1C(=O)c1c(NC(=O)CN3CCC(CN)CC3)cccc1-2 [Example CXVIII, 3-(i-propyl)-5-(4-(aminomethyl)piperidinoacetamido)indeno [1,2-c]pyrazol-4-one] |
| 181 °C | COC[C@H]1CCCN1NC(=O)Nc1cccc2c1C(=O)c1c-2n[nH]c1-c1ccc(C(=O)N2CCN(C)CC2)s1 (as salt: TFA) [Example CCIII, 3-(5-(4-methylpiperazinocarbonyl)-2-thienyl)-5-(2(R)-(methoxymethyl)pyrrolidinocarbamoylamino)indeno[1,2-c]pyrazol-4-one] |
| 196 °C | O=C(Nc1cccc2c1C(=O)c1c-2n[nH]c1C1CCN(C(=O)N2C[C@@H]3C[C@H]2CN3)CC1)NN1CCOCC1 (as salt: TFA) [Example CCLXXII, 3-(1-(((1S,4S)-(+)-2,5-diazabicyclo[2.2.1]hept-2-yl)carbonyl)piperidin-4-yl)-5-(morpholinocarbamoylamino)indeno[1,2-c]pyrazol-4-one] |
| 202 °C | NC1CCC(C(=O)N2CCC(c3[nH]nc4c3C(=O)c3c(NC(=O)NN5CCOCC5)cccc3-4)CC2)CC1 (stereo not drawn) (as salt: TFA) [Example CCLXXXIII, 3-(1-(4-aminocyclohexylcarbonyl)piperidin-4-yl)-5-(morpholinocarbamoylamino)indeno[1,2-c]pyrazol-4-one] |
| 198 °C | Nc1ccc(C(=O)N2CCC(c3[nH]nc4c3C(=O)c3c(NC(=O)NN5CCOCC5)cccc3-4)CC2)cc1 (as salt: TFA) [Example CCXCVII, 3-(1-(4-aminophenylcarbonyl)piperidin-4-yl)-5-(morpholinocarbamoylamino)indeno[1,2-c]pyrazol-4-one] |
| > 250 °C | CC(C)c1[nH]nc2c1C(=O)c1c(NC(N)=O)cccc1-2 [Example XCIII, 3-(i-propyl)-5-(carbamoylamino)indeno[1,2-c]pyrazol-4-one] |
| 253 °C | CCc1[nH]nc2c1C(=O)c1c(NC(=O)NN3CCOCC3)cccc1-2 (as salt: TFA) [Example CCLIX, 3-ethyl-5-(morpholinocarbamoylamino)indeno[1,2-c]pyrazol-4-one] |
